Measured values as given in patent US20240327412A1, “FACTOR XIIA INHIBITORS” (KALVISTA PHARMACEUTICALS LIMITED, priority 2021, published 2024).

Columns and labels:
Type in all cases: biochemical
Human Factor XIIa = target: T1, Human Factor XIIa (Homo sapiens, UniProt P00748); experiment: Determination of FXIIa inhibition (fluorogenic substrate H-DPro-Phe-Arg-AFC, IC50 assay); conditions: substrate at Km concentration, 25° C.; category scale; read-out: Human FXII IC50 (nm)
T1 construct: Proteolytic cleavage of FXII to heavy and light chains of FXIIa dramatically increases catalytic activity; purchased Enzyme Research Laboratories
T1 sequence (P00748 373-615 limits assumed): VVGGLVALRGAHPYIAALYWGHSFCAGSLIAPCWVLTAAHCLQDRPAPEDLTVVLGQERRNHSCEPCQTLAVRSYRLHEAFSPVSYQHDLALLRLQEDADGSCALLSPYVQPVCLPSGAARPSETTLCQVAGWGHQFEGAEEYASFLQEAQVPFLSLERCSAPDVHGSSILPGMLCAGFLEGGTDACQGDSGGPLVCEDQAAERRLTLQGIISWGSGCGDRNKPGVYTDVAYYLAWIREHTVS
T1 sequence (P00748 20-372 partner limits assumed): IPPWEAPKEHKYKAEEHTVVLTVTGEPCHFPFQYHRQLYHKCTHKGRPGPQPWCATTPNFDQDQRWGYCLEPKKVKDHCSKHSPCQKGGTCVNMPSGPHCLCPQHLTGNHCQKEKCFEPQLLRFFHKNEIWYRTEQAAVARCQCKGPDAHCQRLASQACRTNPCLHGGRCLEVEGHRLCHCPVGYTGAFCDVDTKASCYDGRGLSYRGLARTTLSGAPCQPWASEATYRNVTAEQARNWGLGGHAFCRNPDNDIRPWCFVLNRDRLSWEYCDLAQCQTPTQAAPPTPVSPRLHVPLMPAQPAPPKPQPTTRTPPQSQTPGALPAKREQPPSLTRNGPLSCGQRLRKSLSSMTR
In short: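 At substrate Km and 25° C., the rate of AFC release from H-DPro-Phe-Arg-AFC by human Factor XIIa was followed for 5 min across compound concentrations. Inhibition was derived as percent of uninhibited rate, giving IC50.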

KLK1 = KLK1 (Homo sapiens, UniProt P06870); experiment: Related protease inhibition: KLK1 (fluorogenic substrate at Km); conditions: class symbols per Table 18
Protocol: (§1) In vitro inhibition of related proteases was determined using an IC50 assay based on standard literature methods (see e.g. Shori et al., Biochem. Pharmacol., 1992, 43, 1209; Bouckaert et al., European Journal of Medicinal Chemistry 110 (2016) 181). Human serine protease enzyme Plasma Kallikrein, KLK1, FXa, Plasmin, Thrombin and Trypsin were assayed for enzymatic activity using an appropriate fluorogenic substrate at Km concentration, FXIa at fixed substrate concentration of 100 μM and various concentrations of the test compound. Protease activity was measured by monitoring the accumulation of liberated fluorescence from the substrate over 5 min at 25° C. The linear rate of fluorescence increase per minute was expressed as percentage (%) activity. IC50 values were calculated as the concentration of inhibitor giving 50% inhibition of the uninhibited enzyme activity (100%).

Plasma Kallikrein = target: T2, Plasma Kallikrein (Homo sapiens, UniProt P03952); experiment: Related protease inhibition: Plasma Kallikrein (fluorogenic substrate at Km); conditions: class symbols per Table 18, read-out: IC50 (human PKal)
T2 construct: FXIIa converts plasma prekallikrein (PK) to plasma kallikrein (PKa)
Protocol: as §1

KLK1, sequence (P06870 25-262): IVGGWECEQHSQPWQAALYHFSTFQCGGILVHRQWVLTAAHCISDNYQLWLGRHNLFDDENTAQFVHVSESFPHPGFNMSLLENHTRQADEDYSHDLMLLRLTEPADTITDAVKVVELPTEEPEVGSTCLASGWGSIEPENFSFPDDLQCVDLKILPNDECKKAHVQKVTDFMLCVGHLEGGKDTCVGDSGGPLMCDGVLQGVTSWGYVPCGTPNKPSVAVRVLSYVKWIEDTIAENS
T2 sequence (P03952 391-638 limits assumed): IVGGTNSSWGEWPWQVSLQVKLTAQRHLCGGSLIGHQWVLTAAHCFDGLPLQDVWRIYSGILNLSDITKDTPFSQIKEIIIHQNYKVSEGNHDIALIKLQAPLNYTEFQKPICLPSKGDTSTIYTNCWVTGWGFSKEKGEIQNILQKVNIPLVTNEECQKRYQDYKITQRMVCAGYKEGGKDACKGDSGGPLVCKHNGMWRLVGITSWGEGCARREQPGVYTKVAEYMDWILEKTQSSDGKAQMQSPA
T2 sequence (P03952 20-390 partner limits assumed): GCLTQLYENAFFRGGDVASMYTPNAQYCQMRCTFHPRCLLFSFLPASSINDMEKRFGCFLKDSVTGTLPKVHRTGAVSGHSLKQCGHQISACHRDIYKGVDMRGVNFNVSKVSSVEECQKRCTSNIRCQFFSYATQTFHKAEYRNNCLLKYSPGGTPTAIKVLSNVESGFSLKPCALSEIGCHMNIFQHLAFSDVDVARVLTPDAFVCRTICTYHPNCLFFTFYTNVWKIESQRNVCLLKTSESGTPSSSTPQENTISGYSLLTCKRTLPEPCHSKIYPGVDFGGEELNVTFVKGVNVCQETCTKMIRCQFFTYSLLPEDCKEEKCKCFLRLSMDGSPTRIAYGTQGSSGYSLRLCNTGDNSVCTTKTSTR

| Compound | IC50 (Human Factor XIIa) | IC50 (KLK1) | IC50 (Plasma Kallikrein) |
| --- | --- | --- | --- |
| Nc1nccc2c(N3CCC4(CC(COc5ccn6ccnc6c5)C4)C3)cccc12 (stereo not drawn) [Example 8807, 5-(cis*-2-((imidazo[1,2-a]pyridin-7-yloxy)methyl)-6-azaspiro[3.4]octan-6-yl)isoquinolin-1-amine] | 0.3 to 1 µM | 10 to 40 µM |  |
| Clc1ccc2c(NCC34CC(COc5ccn6ccnc6c5)(CCO3)C4)ccnc2c1 [Example 10921, 7-chloro-N-((5-((imidazo[1,2-a]pyridin-7-yloxy)methyl)-2-oxabicyclo[3.1.1]heptan-1-yl)methyl)quinolin-4-amine] | 40 to 100 µM | 10 to 40 µM |  |
| Cc1cc(OCC23CCOC(CNc4cccc5c(N)nccc45)(C2)C3)cc2nccn12 [Example 10925, N5-((5-(((5-methylimidazo[1,2-a]pyridin-7-yl)oxy)methyl)-2-oxabicyclo[3.1.1]heptan-1-yl)methyl)isoquinoline-1,5-diamine] | 0.01 to 0.1 µM | 3 to 10 µM |  |
| CN1Cc2ccc(OCC34COC(CNc5cccc6c(N)nccc56)(C3)C4)cc2C1=O [Example 6628, 6-((1-(((1-aminoisoquinolin-5-yl)amino)methyl)-2-oxabicyclo[2.1.1]hexan-4-yl)methoxy)-2-methylisoindolin-1-one] | 0.1 to 0.3 µM | 3 to 10 µM |  |
| Nc1nccc2c(NCC34CC(COc5ccc6ncc(C(F)(F)F)n6c5)(CO3)C4)cccc12 [Example 6627, N5-((4-(((3-(trifluoromethyl)imidazo[1,2-a]pyridin-6-yl)oxy)methyl)-2-oxabicyclo[2.1.1]hexan-1-yl)methyl)isoquinoline-1,5-diamine] | 1 to 3 µM | 3 to 10 µM |  |
| Nc1nccc2c(OCC34CC(CNc5ccc6nccn6c5)(CO3)C4)cccc12 [Example 6619, 5-((4-((imidazo[1,2-a]pyridin-6-ylamino)methyl)-2-oxabicyclo[2.1.1]hexan-1-yl)methoxy)isoquinolin-1-amine] | 0.3 to 1 µM | 10 to 40 µM |  |
| Cc1c(OCC23COC(CNc4cccc5c(N)nccc45)(C2)C3)ccc2nccn12 [Example 6626, N5-((4-(((5-methylimidazo[1,2-a]pyridin-6-yl)oxy)methyl)-2-oxabicyclo[2.1.1]hexan-1-yl)methyl)isoquinoline-1,5-diamine] | 0.01 to 0.1 µM | 1 to 3 µM |  |
| Cc1c(OCC23CCOC(CNc4cccc5c(N)nccc45)(C2)C3)ccn2ccnc12 [Example 10923, N5-((5-(((8-methylimidazo[1,2-a]pyridin-7-yl)oxy)methyl)-2-oxabicyclo[3.1.1]heptan-1-yl)methyl)isoquinoline-1,5-diamine] | 0.1 to 0.3 µM | 0.3 to 1 µM |  |
| Nc1ncc(Cl)c2cc(NCC34CC(COc5ccn6ccnc6c5)(CCO3)C4)ccc12 [Example 10922, 4-chloro-N6-((5-((imidazo[1,2-a]pyridin-7-yloxy)methyl)-2-oxabicyclo[3.1.1]heptan-1-yl)methyl)isoquinoline-1,6-diamine] | 0.3 to 1 µM | 0.3 to 1 µM |  |
| Nc1nccc2c(NCC34CN(C(=O)OCc5ccccc5)C(C(=O)N5CCn6c(nnc6C(F)(F)F)C5)(C3)C4)cccc12 [Example 13002, benzyl 4-(((1-aminoisoquinolin-5-yl)amino)methyl)-1-(3-(trifluoromethyl)-5,6,7,8-tetrahydro-[1,2,4]triazolo[4,3-a]pyrazine-7-carbonyl)-2-azabicyclo[2.1.1]hexane-2-carboxylate] | 10 to 40 µM |  | > 40 µM |
| Nc1nccc2c(N3CCC4(CC(OCc5ccn6ccnc6c5)C4)C3)cccc12 (stereo not drawn) [Example 8805, 5-(trans*-2-(imidazo[1,2-a]pyridin-7-ylmethoxy)-6-azaspiro[3.4]octan-6-yl)isoquinolin-1-amine] | 1 to 3 µM |  | > 40 µM |
| Clc1cc2c(NCC34CC(COc5ccc6nccn6c5)(CO3)C4)ccnc2[nH]1 [Example 6611, 2-chloro-N-((4-((imidazo[1,2-a]pyridin-6-yloxy)methyl)-2-oxabicyclo[2.1.1]hexan-1-yl)methyl)-1H-pyrrolo[2,3-b]pyridin-4-amine] | 1 to 3 µM |  | > 40 µM |
| Nc1nccc2c(OCC34CC(COc5ccn6ccnc6c5)(C3)C4)cccc12 [Example 1013, 5-[[3-(Imidazo[1,2-a]pyridin-7-yloxymethyl)-1-bicyclo[1.1.1]pentanyl]methoxy]isoquinolin-1-amine] | 0.3 to 1 µM |  | > 40 µM |
| Cn1cccc(OCC23CCOC(CNc4cccc5c(N)nccc45)(C2)C3)c1=O [Example 10911, 3-((1-(((1-aminoisoquinolin-5-yl)amino)methyl)-2-oxabicyclo[3.1.1]heptan-5-yl)methoxy)-1-methylpyridin-2(1H)-one] | 3 to 10 µM |  | > 40 µM |
| Nc1nccc2c(NCC34COC(COc5ccn6c(C(F)(F)F)nnc6c5)(C3)C4)cccc12 [Example 2206, N5-((1-(((3-(trifluoromethyl)-[1,2,4]triazolo[4,3-a]pyridin-7-yl)oxy)methyl)-2-oxabicyclo[2.1.1]hexan-4-yl)methyl)isoquinoline-1,5-diamine] | 1 to 3 µM |  | > 40 µM |
| Nc1nccc2c(NC34CC(COc5ccc6nccn6c5)(C3)C4)cccc12 [Example 1131, N5-(3-((imidazo[1,2-a]pyridin-6-yloxy)methyl)bicyclo[1.1.1]pentan-1-yl)isoquinoline-1,5-diamine] | 10 to 40 µM |  | > 40 µM |
| Nc1nccc2c(OCC34CC(C(=O)N5CCn6ccnc6C5)(C3)C4)cccc12 [Example 1015, [3-[(1-aminoisoquinolin-5-yl)oxymethyl]-1-bicyclo[1.1.1]pentanyl]-(6,8-dihydro-5H-imidazo [1,2-a]pyrazin-7-yl)methanone] | 10 to 40 µM |  | > 40 µM |
| CC(C)N1C[C@@H]2C[C@H]1CN2CC12CC(CNc3cccc4c(N)nccc34)(C1)C2 [Example 1005.1, N5-((3-(((1S,4S)-5-Isopropyl-2,5-diazabicyclo[2.2.1]heptan-2-yl)methyl)bicyclo[1.1.1]pentan-1-yl)methyl)isoquinoline-1,5-diamine] | 0.3 to 1 µM |  | > 40 µM |
| Nc1nccc2c(NCC34CC(Cn5ccccc5=O)(CCO3)C4)cccc12 [Example 10915, 1-((1-(((1-aminoisoquinolin-5-yl)amino)methyl)-2-oxabicyclo[3.1.1]heptan-5-yl)methyl)pyridin-2(1H)-one] | 10 to 40 µM |  | > 40 µM |
| Nc1nccc2c(NCC34COC(COc5ccc6ncnn6c5)(C3)C4)cccc12 [Example 2210, N5-((1-(([1,2,4]triazolo[1,5-a]pyridin-6-yloxy)methyl)-2-oxabicyclo[2.1.1]hexan-4-yl)methyl)isoquinoline-1,5-diamine] | 1 to 3 µM |  | > 40 µM |
| Nc1nccc2c(NCC34CC(COc5ccc6c(c5)NC(=O)C6)(C3)C4)cccc12 [Example 1113, 6-((3-(((1-aminoisoquinolin-5-yl)amino)methyl)bicyclo[1.1.1]pentan-1-yl)methoxy)indolin-2-one] | 1 to 3 µM |  | > 40 µM |
| Nc1nccc2c(NCC34CC(COC5CCc6nccn6C5)(CCO3)C4)cccc12 (centres unmarked) [Example 10908, N5-((5-(((5,6,7,8-tetrahydroimidazo[1,2-a]pyridin-6-yl)oxy)methyl)-2-oxabicyclo[3.1.1]heptan-1-yl)methyl)isoquinoline-1,5-diamine] | 0.3 to 1 µM |  | > 40 µM |
